Experimental data: the NIST ThermoML archive (doi:10.1016/j.jct.2018.08.033)
Numbers after ± are expanded uncertainties.

Assays:
[1] = xn = mol fraction of the nth substance listed; conditions: 100 kPa, Liquid, Vibrating tube method, x2 = 0.9938
[2] = Liquid; for mass density: 100 kPa, Vibrating tube method; for speed of sound: 101.33 kPa, Single path-length method

mass density ([2]; 283.15 K) [kg/m3]	speed of sound ([2]; 283.15 K) [m/s]	mass density ([2]; 288.15 K) [kg/m3]	speed of sound ([2]; 288.15 K) [m/s]	mass density ([2]; 293.15 K) [kg/m3]	speed of sound ([2]; 293.15 K) [m/s]	mass density ([2]; 298.15 K) [kg/m3]	speed of sound ([2]; 298.15 K) [m/s]	mass density ([2]; 303.15 K) [kg/m3]	speed of sound ([2]; 303.15 K) [m/s]	SMILES	mass density ([1]; 283.15 K) [kg/m3]	mass density ([1]; 288.15 K) [kg/m3]	mass density ([1]; 293.15 K) [kg/m3]	mass density ([1]; 298.15 K) [kg/m3]	mass density ([1]; 303.15 K) [kg/m3]
–	–	–	–	–	–	–	–	–	–	CCCCOCCCN [3-butoxy-1-propanamine] + O	996.79 ± 1	995.99 ± 1	994.84 ± 1	993.43 ± 0.99	991.89 ± 0.99
1059.63 ± 1.4	1658.7 ± 2.4	1056.47 ± 1.4	1647.2 ± 2.4	1053.3 ± 1.4	1635.9 ± 2.4	1050.14 ± 1.4	1624.6 ± 2.4	1046.99 ± 1.4	1613.3 ± 2.4	OCCCO [propan-1,3-diol]	–	–	–	–	–
